Reference: patent US7531193B2 (priority 2004, dated 2009)
Where “and” joins values, the source holds several entries; their conditions need not be identical. Equal values may be shown once.

Tested on: human striated muscle cell innervation with spinal cord and spinal ganglion explants from rat embryos
Format: cell-based, human (muscle cells), rat (embryo explants)

In the case of `C/C=C/C=C\CC/C=C/C(=O)NCC(C)C` [Pure spilanthol, spilanthol], the “Effect on muscle contractions (conclusion)” value is reported as “lead to a blockage of muscle contractions”, the “Frequency of contractions (%), incubation without washout, 5 min” value is reported as 0% and 7% and the “Frequency of contractions (%), incubation without washout, 1 h” value is reported as 0%. The “Frequency of contractions (%), incubation without washout, 6 h” value was 0% and 4%, the “Frequency of contractions (%), recuperation after washout, 1 h” value was 0% and the “Incubation time after which muscle contractions are blocked” value was 5 min. The “Recuperation of contractile activity (conclusion)” value was “not observed”, the “Time the fibres remain blocked after elimination of the substance” value was 24 h and the “Time until which the blockage is maintained during incubation” value was 6 h.
